A short description of data set [1]: Efflux ratio of apparent permeability from basolateral to apical over apical to basolateral side in human Caco2 cells at 100 uM after 15 to 120 mins by LC-MS analysis. Format: ADME, cell-based. The note with it: Caco-2. For orientation: Passage across Caco-2 layers is used to estimate intestinal permeability.
The nature of data set [2]: Apparent permeability from basolateral to apical side in human Caco2 cells at 100 uM after 15 to 120 mins by LC-MS analysis. It counts as ADME, cell-based. The note with it: Caco-2.
Data set [3] in a line: Apparent permeability from apical to basolateral side in human Caco2 cells at 100 uM after 15 to 120 mins by LC-MS analysis. Format: ADME, cell-based. The note with it: Caco-2.
Data set [4] is described as follows: Apparent permeability from apical to basolateral side in human Caco2 cells assessed as mass balance at 100 uM after 15 to 120 mins by LC-MS analysis. It counts as ADME, cell-based. The note with it: Caco-2, read-out: Activity.
Data set [5] in a line: Apparent permeability from basolateral to apical side in human Caco2 cells assessed as mass balance at 100 uM after 15 to 120 mins by LC-MS analysis. It counts as ADME, cell-based. The note with it: Caco-2, read-out: Activity.
The subject of data set [6] is Mus musculus. The data set is described as follows: Antiallodynic activity in NMRI mouse model of spared nerve injury-induced mechanical allodynia assessed as increase in mechanical threshold at 185 nmol/kg, ip administered 14 days post spared nerve injury surgery and co-treated with 1850 nmol/kg, ip D-SP1-7 by Von Frey filament assay. Format: functional, organism-based.

The nature of data set [7]: Half life in human plasma at 4 uM after 180 mins by LC-MS/MS analysis. It counts as ADME, cell-free.
Data set [8] deals with Mus musculus. Put plainly: Antiallodynic activity in NMRI mouse model of spared nerve injury-induced mechanical allodynia assessed as increase in mechanical threshold at 1.85 to 1850 nmol/kg, ip administered 14 days post spared nerve injury surgery measured at 45 mins post dose by Von Frey filament assay. It counts as functional, organism-based.
The test system of data set [9] is Mus musculus. Put plainly: Potency index, ratio of morphine ED50 to compound ED50 for antiallodynic activity in ip dosed NMRI mouse model of spared nerve injury-induced mechanical allodynia by Von Frey filament assay. It counts as functional.
For data set [10], the system named is Mus musculus. The data set is described as follows: Antiallodynic activity in NMRI mouse model of spared nerve injury-induced mechanical allodynia assessed as increase in mechanical threshold at 185 to 1850 nmol/kg, ip administered 14 days post spared nerve injury surgery measured at 15 to 60 mins post dose by Von Frey filament assay. Format: functional, organism-based.

Data set [11] is described as follows: Cytotoxicity against Sprague-Dawley rat primary cortical cells assessed as reduction in cell viability at 10^-5 to 10^-9 M after 24 hrs by MTT assay. It counts as cell-based. (Formazan colour is commonly taken as a measure of viable cells.)
The nature of data set [12]: Cytotoxicity against Sprague-Dawley rat primary cortical cells assessed as reduction in […] at 10^-5 to 10^-9 M after 24 hrs by LDH assay. Format: cell-based.
Data set [13] deals with Mus musculus. Put plainly: Antiallodynic activity in ip dosed NMRI mouse model of spared nerve injury-induced mechanical allodynia assessed as increase in mechanical threshold administered 14 days post spared nerve injury surgery by Von Frey filament assay. Format: functional, organism-based.
Data set [14] relates to Mus musculus. Put plainly: Potency index, ratio of gabapentin ED50 to compound ED50 for antiallodynic activity in ip dosed NMRI mouse model of spared nerve injury-induced mechanical allodynia by Von Frey filament assay. It counts as functional.
For data set [15], the system named is Mus musculus. Put plainly: Antiallodynic activity in NMRI mouse model of spared nerve injury-induced mechanical allodynia assessed as increase in mechanical threshold at 1.85 to 1850 nmol/kg, ip administered 14 days post spared nerve injury surgery measured at 30 mins post dose by Von Frey filament assay. Format: functional, organism-based.
For data set [16], the system named is Mus musculus. The data set is described as follows: Antiallodynic activity in ip dosed NMRI mouse model of spared nerve injury-induced mechanical allodynia assessed as pain relief administered 14 days post spared nerve injury surgery measured at 15 to 60 mins post dose by Von Frey filament assay. Format: functional.
Data set [17] deals with Mus musculus. The data set is described as follows: Antiallodynic activity in NMRI mouse model of spared nerve injury-induced mechanical allodynia assessed as increase in mechanical threshold at 185 nmol/kg, ip administered 14 days post spared nerve injury surgery measured at 15 to 60 mins post dose by Von Frey filament assay. Format: functional, organism-based.
The nature of data set [18]: Half life in NMRI mouse plasma at 4 uM after 180 mins by LC-MS/MS analysis. Format: ADME, cell-free.
Data set [19] deals with Mus musculus. The data set is described as follows: Antiallodynic activity in NMRI mouse model of spared nerve injury-induced mechanical allodynia assessed as pain relief at 12 umol/kg, ip administered 14 days post spared nerve injury surgery measured at 45 mins post dose by Von Frey filament assay. It counts as functional, organism-based.
Data set [20] has as its system Mus musculus. Put plainly: Antiallodynic activity in NMRI mouse model of spared nerve injury-induced mechanical allodynia assessed as pain relief at 585 umol/kg, ip administered 14 days post spared nerve injury surgery measured at 180 mins post dose by Von Frey filament assay. It counts as functional, organism-based.
Data set [21] concerns Mus musculus. Put plainly: Antiallodynic activity in NMRI mouse model of spared nerve injury-induced mechanical allodynia assessed as pain relief at 585 umol/kg, ip administered 14 days post spared nerve injury surgery measured at 30 mins post dose Von Frey filament assay. It counts as functional, organism-based.
Data set [22] deals with Mus musculus. The data set is described as follows: Antiallodynic activity in NMRI mouse model of spared nerve injury-induced mechanical allodynia assessed as pain relief at 585 umol/kg, ip administered 14 days post spared nerve injury surgery measured at 60 mins post dose by Von Frey filament assay. It counts as functional, organism-based.

Results on 6 molecules are retold here after ChEMBL document CHEMBL4118280, “An imidazole based H-Phe-Phe-NH2 peptidomimetic with anti-allodynic effect in spared nerve injury mice” (Bioorg Med Chem Lett, 2018).

Active and inactive are the calls of the source.

On to `OC[C@@H](O)[C@@H](O)[C@H](O)[C@H](O)CO` [MANNITOL], for which, in data set [1], the efflux ratio (usually a quotient of directional permeabilities that is used to spot active efflux) at 100 µM is 1.4. Also, the basolateral-to-apical permeability (Papp B→A) (usually the apparent permeability from the basolateral to the apical side of a cell layer) at 100 µM in data set [2] was found to be 0.2 ×10⁻⁶ cm/s. For the same molecule, the Papp A→B (as a rule, how fast a substance crosses the layer from the apical side) at 100 µM in [3] came out at 0.1 ×10⁻⁶ cm/s. The recovery at 100 µM was in the range of 97 to 101% in data set [4] and 99 to 103% in [5].
As to `NC(=O)[C@H](Cc1ccccc1)NC(=O)c1[nH]cnc1-c1ccccc1`, the outcome in the data set on Mus musculus [6] and in the data set with Mus musculus [8] was inactive. In addition, the efflux ratio at 100 µM in data set [1] is 19. Further, the values for the half-life at 4 µM in data set [7] and in data set [18] were above 180 min and at least 180 min, respectively. For the same molecule, the Papp B→A at 100 µM in data set [2] was found to be 16 ×10⁻⁶ cm/s. Further, the Papp A→B at 100 µM in data set [3] turned out to be 0.84 ×10⁻⁶ cm/s. The entries for the “Ratio ED50” value in the data set on Mus musculus [9] and in the data set on Mus musculus [14] were 30 and 1600, respectively. Moreover, the outcome with Mus musculus [10], in the data set on Mus musculus [15] and in the data set on Mus musculus [17] was Active. For the same molecule, the results for the Activity entry (in data set [11]; in data set [12]; in the data set with Mus musculus [13]) were “Non-Toxic”, “Non-Toxic” and “Dose-dependent effect”, respectively. Besides, the recovery at 100 µM came out at 65% in data set [4] and 67% in data set [5]. Besides, the 50% effective dose (ED50) (usually the dose at which the effect has come halfway, by size or by number of responders) in the data set on Mus musculus [16] worked out at 0.21 µmol/kg.
For the molecule `CN1CC[C@]23c4c5ccc(O)c4O[C@H]2[C@@H](O)C=C[C@H]3[C@H]1C5` [MORPHINE], the result with Mus musculus [19] was Active. In addition, the ED50 with Mus musculus [16] is 6.5 µmol/kg.
On to `NCC1(CC(=O)O)CCCCC1` [GABAPENTIN], for which the result in the data set with Mus musculus [20] was inactive. Also, the ED50 in the data set on Mus musculus [16] was 336 µmol/kg. Further, the result in the data set on Mus musculus [21] and in the data set with Mus musculus [22] was Active.
For H-RPKPQQF-NH2, in the data set on Mus musculus [17], the outcome was Active. Also, the half-life (in general, the time in which the quantity being followed falls by half) at 4 µM in data set [18] amounted to 6.4 min.
Turning to H-RPKPQQF-OH, in data set [18], the half-life at 4 µM stood at 4.4 min.
